Laboratory results: EP0005658A1, “Peptide derivatives analogue to encephalines, process for their preparation and their therapeutical application” (Laboratoire le Brun S.A. Société dite:, priority 1978, dated 1979)
Values joined by “and” are separate entries in the source; they are usually repeats but may differ in a detail not shown here. Identical values can stand only once.

Legend:
[1] = molecular target: sites de liaison à haute et moyenne affinité de la leucine-enképhaline 3-R de membranes striatales de souris; assay: Competition with tritiated Leu-enkephalin binding on mouse striatal membranes; settings: displacement of a fixed concentration of Leucine-Enképhaline 3-H
Procedure: On a déterminé le pouvoir compétiteur des dérivés de l'invention vis-à-vis des sites de liaison à haute et moyenne affinité de la leucine-enképhaline 3-R de membranes striatales de souris.
Les conditions de préparation des membranes et d'incubation ont été les mêmes que celles qui sont décrites dans Audigier et Coll. (C. Acad. Sciences plus Euro- pean J. of Pharmacol.).
Des concentrations croissantes des divers composés synthétisés ont été opposées à une concentration fixe de Leucine-Enképhaline 3-H et les déplacements observés ont permis dans chaque cas de déterminer une constante d'inhi- bition (Ki).

souris = assay: Hot plate test in the mouse (analgesia); settings: 10 mg/kg compared with morphine 1 mg/kg, taking molarities into account
Vas déferens de souris = Vas déferens de souris (Mus musculus, UniProt P32300); assay: Transmural electrical stimulation of mouse vas deferens (Hughes and Kosterlitz); format: cell-based; settings: contact time 3 minutes, read-out: % d'inhibition
Sequence of Vas déferens de souris (P32300 whole entry): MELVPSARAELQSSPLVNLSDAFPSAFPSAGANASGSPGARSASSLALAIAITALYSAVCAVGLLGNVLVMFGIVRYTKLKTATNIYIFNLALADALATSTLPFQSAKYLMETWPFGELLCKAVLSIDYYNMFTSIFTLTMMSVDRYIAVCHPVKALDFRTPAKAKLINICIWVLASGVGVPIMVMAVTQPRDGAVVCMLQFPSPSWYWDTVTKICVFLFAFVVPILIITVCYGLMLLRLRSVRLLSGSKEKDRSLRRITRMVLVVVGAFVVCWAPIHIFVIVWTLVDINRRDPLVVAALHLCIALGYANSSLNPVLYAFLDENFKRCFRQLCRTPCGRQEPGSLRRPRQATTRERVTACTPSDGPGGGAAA
Procedure: On a utilisé une technique de stimulation transmu- rale du canal différent de la souris, adaptée à celle décrite par HUCHES et KOSTERLITZ (J.HUGUES, H.W.KOSTERLITZ and Frances M.LESLIE, "Effect of morphine ou adrenergic transmission in the mouse vas deferens. Assessment of ago- nist and antagonist potencies of narcotic analgesics".-Br J. Pharmac. 53 371-381 (1975).
• - Les essais ont été réalisés dans une cuve de 7 ml irriguée par une solution de KREBS. • - Les stimulations électriques, supramaximales (6 par minute) étaient ajustées à chaque essai. • - Les concentrations des différents produits étudiés sont exprimées en nM par litre. • - Pour chaque concentration le temps de contact a été de 3 minutes. Dans les cas où le maximum d'inhibition a été atteint en un temps plus court, le fait a été signalé. Chaque essai était séparé du suivant par une période de 10 à 20 minutes. • - Les résultats sont exprimés en pourcentage d'inhibition de la concentration consécutive à la stimulation électrique du canal déférent. On a ensuite calculé les doses actives 50 par la méthode de Parker & Wand (J.Pharm. Exper. Therap.96-99 (1949).

rat [2] = assay: Catalepsy in the rat (psychotropic action); format: in vivo
From the text: Elle a été évaluée par la recherche d'une catalepsie chez le rat.
Ces essais ont été réalisés avec des rats femelles indexes d'organisées pathogènes spécifiques pesant de 200 à 220 g.
L'effet cataleptique est mesuré en suspendant le rat par ses pattes antérieures au rebord de la cage d'expérience : un rat cataleptique reste dans cette position alors qu'un animal normal l'abandonne aussitôt, voire ne la prend pas du tout.
La catalepsie est appréciée de la façon suivante: • 0 : pas de catalepsie • 1 : catalepsie liminaire • 2 : catalepsie d'intensité moyenne • […] : catalepsie très prononcée
Les animaux sont traités par voie sous cutanée.
Les expériences ont été effectuées à l'aveugle, l'observateur ignorant les traitements.

rat [3] = assay: Castor oil diarrhoea test in the rat; format: in vivo
[4] = Acute toxicity in the mouse; set-up: species or system souris; settings: in vivo, IV route, read-out: D.L. 5a
Procedure: Les dérivés de formule générale I bénéficient d'une excellente tolérance et d'une faible toxicité qui a été plus particulièrement étudiée sur lés dérivés N° 12 et 13, qui ont fait l'objet d'une épreuve de toxicité aiguë chez la souris.
Les D.L. 5a obtenues sont respectivement de : • 725 ± 25 mg/kg par voie IV pour le dérivé.n° 12. • et 892 ± 31 mg/kg "" " pour le dérivé n° 13.

iléon de cobaye = iléon de cobaye (Cavia porcellus, UniProt A0ACM8Q262); assay: cell-based; format: cell-based; settings: for Activité Morphine =100: activity relative to morphine (= 100) in concomitant tests
Sequence of iléon de cobaye (A0ACM8Q262 1-400): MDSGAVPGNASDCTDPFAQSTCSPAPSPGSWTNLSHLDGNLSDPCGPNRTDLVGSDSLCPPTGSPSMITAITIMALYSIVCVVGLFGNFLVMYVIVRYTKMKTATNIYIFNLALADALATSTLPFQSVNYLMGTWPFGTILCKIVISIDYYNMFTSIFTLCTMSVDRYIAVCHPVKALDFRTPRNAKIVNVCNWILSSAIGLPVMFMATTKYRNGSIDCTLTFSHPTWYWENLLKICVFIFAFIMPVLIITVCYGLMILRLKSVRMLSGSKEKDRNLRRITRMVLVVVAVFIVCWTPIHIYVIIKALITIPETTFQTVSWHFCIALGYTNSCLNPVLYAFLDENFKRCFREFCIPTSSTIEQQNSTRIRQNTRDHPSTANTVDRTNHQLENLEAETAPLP
Procedure: I. Action analgésique par rapport à la morphine comme substance de référence qui a été contrôlée • a) Sur organe isolé. - iléon de cobaye
On a utilisé la technique de stimulation transmu- rale de l'iléon de cobaye de PATON (W.D.M. PATON, "The rés- ponse of the guinea-pig ileum to electrical stimulation by coaxial electrodes" - J. Physiol. (London), 127, 40P-41P (1955) et PATON (W.D.M.) - Brit.J. Pharmacol. 11).
• - Les essais ont été réalisés dans une cuve de 35 ml irriguée par une solution de KREBS. • - Les stimulations électriques, supramaximales (6 par minute - […]) étaient ajustées à chaque essai. Courant rectangulaire - durée-0,5 milliseconde. • - Les concentrations des différents produits étudiés, ainsi que celles de la morphine qui a servi de corps de référence, sont exprimées en nanomoles (nM) par litre. • - Pour chaque concentration, le temps de contact a été de 3 minutes. Chaque essai était séparé du suivant par une période de 10 à 20 minutes. • - Les résultats sont exprimés en pourcentage d'inhibition de la concentration consécutive à la stimulation électri--que de l'iléon. On a ensuite calculé les doses actives 50 par la méthode de Parker et Waud (J. of pharmacology, 1971, 177, n°4) qui ont été comparées à celle de la morphine dans des essais concomitants.

[5] = 2 heures after product, oral 3 mg/kg, 10 rats
[6] = 2 heures after product, oral 10 mg/kg, 10 rats (Codéine base: 20 rats)
[7] = 2 heures after product, oral 30 mg/kg, 10 rats
[8] = 4 heures after product, oral 3 mg/kg, 10 rats
[9] = 4 heures after product, oral 10 mg/kg, 10 rats (Codéine base: 20 rats)
[10] = 4 heures after product, oral 30 mg/kg, 10 rats

Which Ki [1] does the source give for `CC(C)C[C@H](NC(=O)[C@H](Cc1ccccc1)NC(=O)CNC(=O)CNC(=O)[C@@H](N)Cc1ccc(O)cc1)C(=O)O` [Leu-enképhaline, reference compound] here?
The Ki was 5 ± 1.8 nM.

For `CSCC[C@H](NC(=O)[C@H](Cc1ccccc1)NC(=O)CNC(=O)[C@@H](C)NC(=O)[C@@H](N)Cc1ccc(O)cc1)C(=O)NCCNS(=O)(=O)c1cccc2c(N(C)C)cccc12` [Dérivé n° 12, Tyr-D Ala- Gly-Phe-Met-NH-(CH2)2-NH-SO2 -X, dans lequel X est un groupe 5 diméthylamino-α-naphtyle], which “coefficient d'activité” value (souris) is on record?
Its value is ~35%.

What about the inhibition at 0.0012 µM (Vas déferens de souris; 1,2 nM/l) of the same compound?
Its inhibition at 0.0012 µM is 41.8%.

What about the inhibition at 0.0018 µM (Vas déferens de souris; 1,8 nM/l) of the same compound?
The inhibition at 0.0018 µM was 50%.

What about the inhibition at 0.0024 µM (Vas déferens de souris; 2,4 nM/l) of the same compound?
Its inhibition at 0.0024 µM is 63%.

What about the “D.A. 50/ sous cut.” value (rat [2]; catalepsy, subcutaneous route, female rats) of the same compound?
Its value is 5 mg/kg.

And the “Nombre d'animaux non diarrhéiques” value (rat [3]; [5])?
Its value is 6.

And the “Nombre d'animaux non diarrhéiques” value (rat [3]; [6])?
Its value is 10.

And the “Nombre d'animaux non diarrhéiques” value (rat [3]; [7])?
The value was 10.

What about the “Nombre d'animaux non diarrhéiques” value (rat [3]; [8]) of the same compound?
The value was 3.

What about the “Nombre d'animaux non diarrhéiques” value (rat [3]; [9]) of the same compound?
Its value is 6.

What about the “Nombre d'animaux non diarrhéiques” value (rat [3]; [10]) of the same compound?
Its value is 10.

What about the “action antidiarrhéique” value (rat [3]; statement in words, 30 mg/kg, four hours) of the same compound?
Its value is “protège tous les animaux”.

What about the LD50 [4] of the same compound?
Its LD50 is 725 ± 25 mg/kg.

What about the Ki [1] of the same compound?
The Ki was 5 ± 2 nM.

And the inhibition at 0.012 µM (iléon de cobaye; 12 nM/l, contact time 3 minutes, read-out: % d'inhibition)?
The inhibition at 0.012 µM was 28.3%.

What about the inhibition at 0.018 µM (iléon de cobaye; 18 nM/l, contact time 3 minutes, read-out: % d'inhibition) of the same compound?
Its inhibition at 0.018 µM is 35.5%.

And the inhibition at 0.024 µM (iléon de cobaye; 24 nM/l, contact time 3 minutes, read-out: % d'inhibition)?
Its inhibition at 0.024 µM is 51.3%.

And the inhibition at 0.06 µM (iléon de cobaye; 60 nM/l, contact time 3 minutes, read-out: % d'inhibition)?
The inhibition at 0.06 µM was 76.3%.

What about the “Activité Morphine =100” value (iléon de cobaye) of the same compound?
Its value is 147.

For `CSCC[C@H](NC(=O)[C@H](Cc1ccccc1)NC(=O)CNC(=O)[C@@H](C)NC(=O)[C@@H](N)Cc1ccc(O)cc1)C(=O)NCCCCCNS(=O)(=O)c1cccc2c(N(C)C)cccc12` [Dérivé n° 13], which inhibition at 0.6 µM (Vas déferens de souris; 600 nM/l) is on record?
The inhibition at 0.6 µM was 38%.

What about the inhibition at 0.75 µM (Vas déferens de souris; 750 nM/l) of the same compound?
The inhibition at 0.75 µM was 55%.

And the inhibition at 0.9 µM (Vas déferens de souris; 900 nM/l)?
The inhibition at 0.9 µM was 83.3%.

And the inhibition at 1.5 µM (Vas déferens de souris; 1 500 nM/l)?
Its inhibition at 1.5 µM is 90.5%.

And the LD50 [4]?
The LD50 was 892 ± 31 mg/kg.

And the Ki [1]?
The Ki was 21 ± 5 nM.

What about the inhibition at 0.15 µM (iléon de cobaye; 150 nM/l, contact time 3 minutes, read-out: % d'inhibition) of the same compound?
Its inhibition at 0.15 µM is 34.2%.

What about the inhibition at 0.3 µM (iléon de cobaye; 300 nM/l, contact time 3 minutes, read-out: % d'inhibition) of the same compound?
Its inhibition at 0.3 µM is 46.4%.

And the inhibition at 0.6 µM (iléon de cobaye; 600 nM/l, contact time 3 minutes, read-out: % d'inhibition)?
Its inhibition at 0.6 µM is 68.1%.

And the “Activité Morphine =100” value (iléon de cobaye)?
The value was 12,7.

With `CN1CC[C@]23c4c5ccc(O)c4O[C@H]2[C@@H](O)C=C[C@H]3[C@H]1C5` [Morphine] as the compound, how does the “D.A. 50/ sous cut.” value (rat [2]; rat, in vivo, sc) read?
The value was 2,5 mg/kg.

What about the “Nombre d'animaux non diarrhéiques” value (rat [3]; rat, in vivo, po, 3 mg/kg) of the same compound?
The value was 9 and 5.

What about the “Nombre d'animaux non diarrhéiques” value (rat [3]; rat, in vivo, po, 10 mg/kg) of the same compound?
Its value is 10 and 8.

Which “Nombre d'animaux non diarrhéiques” value (rat [3]; [5]) does the source give for `COc1ccc2c3c1O[C@H]1[C@@H](O)C=C[C@H]4[C@@H](C2)N(C)CC[C@@]341` [Codéine base, Codéine] here?
The value was 7.

What about the “Nombre d'animaux non diarrhéiques” value (rat [3]; [6]) of the same compound?
Its value is 19.

And the “Nombre d'animaux non diarrhéiques” value (rat [3]; [7])?
The value was 10.

And the “Nombre d'animaux non diarrhéiques” value (rat [3]; [8])?
The value was 4.

What about the “Nombre d'animaux non diarrhéiques” value (rat [3]; [9]) of the same compound?
The value was 14.

And the “Nombre d'animaux non diarrhéiques” value (rat [3]; [10])?
Its value is 8.

For `O=C(CCCN1CCC(O)(c2ccc(Cl)cc2)CC1)c1ccc(F)cc1` [Halopéridol], which ED50 (rat [2]; Rattus norvegicus, sc, catalepsy, subcutaneous route, female rats, read-out: D.A. 50/ sous cut.) is on record?
Its ED50 is 0.2 mg/kg.
